Measured values: BindingDB's records for patent US12383533 (Frost Biologic, 2025)

Molecular target: Tubulin alpha-1A chain (Sus scrofa, UniProt P02550)
Test: Not found
Description: Not found

Tubulin alpha-1A chain, sequence (P02550 whole entry, looked up): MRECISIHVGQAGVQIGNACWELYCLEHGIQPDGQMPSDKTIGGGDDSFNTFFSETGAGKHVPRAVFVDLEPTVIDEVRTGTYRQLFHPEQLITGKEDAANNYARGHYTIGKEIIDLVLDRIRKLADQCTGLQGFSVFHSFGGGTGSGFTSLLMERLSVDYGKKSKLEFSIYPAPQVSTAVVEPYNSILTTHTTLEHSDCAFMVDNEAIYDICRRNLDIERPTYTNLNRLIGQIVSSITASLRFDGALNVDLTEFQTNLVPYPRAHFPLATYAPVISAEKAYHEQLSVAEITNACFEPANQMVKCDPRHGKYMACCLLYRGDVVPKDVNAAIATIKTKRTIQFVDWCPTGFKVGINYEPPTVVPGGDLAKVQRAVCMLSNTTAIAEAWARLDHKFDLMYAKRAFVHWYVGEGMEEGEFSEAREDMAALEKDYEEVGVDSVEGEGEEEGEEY

Compound: Cc1ncc(C(=O)Nc2ncc(-c3cccc(NC4CC4)c3)cc2F)cn1 [US12383533, Compound 68]
- IC50: 1.98 µM
